# Columns and labels:
# Type in all cases: cell-based
# GR [1] = biological target: T1, GR (Homo sapiens, UniProt P04150); assay: GR transactivation on MMTV in AD293 cells (pHHLuc dual-luciferase reporter); conditions: FIG. 5
# T1 construct: expressed in transfected cells; host or cells: AD293 cells
# T1 sequence (P04150 1-777): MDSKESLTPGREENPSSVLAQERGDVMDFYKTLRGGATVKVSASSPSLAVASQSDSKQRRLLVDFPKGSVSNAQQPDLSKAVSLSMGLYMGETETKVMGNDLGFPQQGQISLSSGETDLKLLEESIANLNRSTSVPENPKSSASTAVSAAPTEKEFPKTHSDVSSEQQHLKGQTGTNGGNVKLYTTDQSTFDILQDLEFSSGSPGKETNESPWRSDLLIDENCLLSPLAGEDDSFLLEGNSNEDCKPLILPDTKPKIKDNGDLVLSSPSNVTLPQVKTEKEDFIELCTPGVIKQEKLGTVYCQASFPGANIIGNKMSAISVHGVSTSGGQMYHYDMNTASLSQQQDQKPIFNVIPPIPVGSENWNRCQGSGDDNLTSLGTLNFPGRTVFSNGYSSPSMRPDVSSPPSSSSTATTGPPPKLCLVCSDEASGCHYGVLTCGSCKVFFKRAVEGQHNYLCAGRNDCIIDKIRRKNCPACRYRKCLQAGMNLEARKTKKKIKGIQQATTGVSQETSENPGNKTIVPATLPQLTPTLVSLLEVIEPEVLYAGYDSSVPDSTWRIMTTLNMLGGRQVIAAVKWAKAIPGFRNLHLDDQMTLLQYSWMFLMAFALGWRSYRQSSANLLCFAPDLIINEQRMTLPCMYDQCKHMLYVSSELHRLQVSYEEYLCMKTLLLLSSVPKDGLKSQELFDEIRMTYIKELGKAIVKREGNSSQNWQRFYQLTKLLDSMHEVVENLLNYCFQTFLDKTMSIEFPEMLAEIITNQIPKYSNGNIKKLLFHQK
# Experimental: GR Transactivation on MMTV in∘AD293 Cells Transfected with 0.5 ng GR
# AD293 cells were transfected with 0.5 ng GR, 100 ng pHHLuc reporter together with 5 ng Renilla control plasmids, then induced by EtOH (vehicle control), Dexamethasone (10 nM), Compound #53 (5 μM), AL438 (1 μM) and DMSO (vehicle control). Dual-Luciferase values were measured by Promega standard manual, Compound #53's transactivation activity on MMTV in AD293 cells is shown in FIG. 5.
# GR [2] = biological target: T1, GR; assay: GR transrepression of AP1 in AD293 cells (AP1-Luc dual-luciferase reporter)
# Experimental: FIG. 9 is a bar graph showing the dose-response of Compound #53 on GR transrepression of AP1 in AD293 cells.
# GR Transrepression of AP1 in AD293 Cells Transfected with 10 ng GR
# AD293 cells were transfected with 10 ng GR, 100 ng AP1-Luc reporter together with 5 ng Renilla control plasmids, then induced by EtOH (vehicle control), Dexamethasone (10 nM), Compound #53 (5 μM), AL438 (1 μM). Dual-Luciferase values were measured by Promega standard manual.
# GR Transpression of AP 1 in AD293 Cells Transfected with 50 ng GR
# AD293 cells were transfected with 50 ng GR, 100 ng AP1-Luc reporter together with 5 ng Renilla control plasmids, then induced by PMA+EtOH (vehicle control), PMA+Dexamethasone (10 nM), PMA+Compound #53 (5 μM). Dual-Luciferase values were measured by Promega standard manual.
# GR [3] = biological target: T1, GR; assay: GR transrepression of NF-kB in AD293 cells (pNF-kB-Luc dual-luciferase reporter)
# Experimental: FIG. 10 is a bar graph showing the dose-response of Compound #53 on GR transrepression of NF-kB in AD293 cells.
# GR Transrepression of NF-kB in AD293 Cells Transfected with 100 ng GR
# […] Dual-Luciferase values were measured by Promega standard manual.
# [4] = dose-response repression experiments
structure (smiles),measurement,setting,value
"CN(C)Cc1ccc(-c2cc3onc(-c4ccccc4)c3c(=O)n2C)cc1 [Compound #53, 6-(4-((dimethylamino)methyl)phenyl)-5-methyl-3-phenylisoxazolo[4,5-c]pyridin-4(5H)-one]",GR transactivation activity,GR [1],minimal GR transactivation activity
same,GR transrepression activity on AP1 compared with currently used GR ligands,GR [2]; FIGS. 6-7,stronger GR transrepression activity than currently used GR ligands
same,fold repression for AP1,"GR [2]; at 50 μM, dose-response, FIG. 9",about 2000
same,AP-1 activity on the reporter,GR [2]; [4],almost zero
same,GR transrepression activity on NF-kB compared with currently used GR ligands,GR [3]; FIG. 8,stronger GR transrepression activity than currently used GR ligands
same,fold repression of NF-kB,"GR [3]; at 50 μM, dose-response, FIG. 10",about 1000
same,NF-kB activity on the reporter,GR [3]; [4],almost zero

# — patent US20110251211A9, “METHODS OF USING SUBSTITUTED ISOXAZOLO PYRIDINONES AS DISSOCIATED GLUCOCORTICOIDS” (priority 2009, published 2011)
